Tests used:
Format in all cases: biochemical
[1] = biological target: T1, DapFCT-His (chlamydial DapF, DAP epimerase) (Chlamydia trachomatis, UniProt B0B802); assay: glutamate racemase assay coupled to L-glutamate dehydrogenase (NADPH, […] nm); settings: 20 mM D-Glu, 10 uM PLP, 10 mM MgCl2, 20 mM Tris-Cl pH 8.0, 37 C; racemization to L-Glu
T1 construct: 6-His tag at 5' end (N-terminal), tag not removed; pTBSG vector, E. coli BL21(DE3); Ni-NTA purified; ~32 kDa
T1 sequence (B0B802 1-275): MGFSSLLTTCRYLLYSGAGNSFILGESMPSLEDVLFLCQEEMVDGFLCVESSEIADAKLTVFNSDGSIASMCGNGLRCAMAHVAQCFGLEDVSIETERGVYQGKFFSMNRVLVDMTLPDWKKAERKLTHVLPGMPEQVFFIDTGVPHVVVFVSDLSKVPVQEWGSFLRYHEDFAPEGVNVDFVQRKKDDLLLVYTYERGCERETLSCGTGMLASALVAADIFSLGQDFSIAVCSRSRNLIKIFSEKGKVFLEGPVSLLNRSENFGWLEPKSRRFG

[2] = biological target: T1, DapFCT-His (chlamydial DapF, DAP epimerase); assay: as above; settings: 10 mM D-Glu as substrate, 10 uM PLP, 10 mM MgCl2, 20 mM Tris-Cl pH 8.0, 37 C; competing substrate
[3] = biological target: T1, DapFCT-His (chlamydial DapF, DAP epimerase); assay: glutamate racemase coupled assay with and without PLP; settings: 10 uM PLP, D-Glu as substrate, 10 mM MgCl2, 20 mM Tris-Cl pH 8.0, 37 C; required for racemase activity

N[C@H](CCC(=O)O)C(=O)O [D-Glu]
glutamate racemase assay coupled to L-glutamate dehydrogenase (NADPH, 340 nm) [1]: Purified DapFCT-His was assayed for glutamate racemase activity with D-Glu as the substrate

N[C@@H](CCC[C@H](N)C(=O)O)C(=O)O [L,L-DAP]
% decrease of glutamate racemase activity at 10 mM L,L-DAP [2]: 47%

Cc1ncc(COP(=O)(O)O)c(C=O)c1O [pyridoxal phosphate]
glutamate racemase coupled assay with and without PLP [3]: D-Glu racemization to L-Glu was found to be PLP dependent (Fig. 4a)
